Source: patent US20240132463A1, “SUBSTITUTED N-(2-(2,6-DIOXOPIPERIDIN-3-YL)-1,3-DIOXOISOINDOLIN-5-YL)ARYLSULFONAMIDE ANALOGS AS MODULATORS OF CEREBLON PROTEIN” (ST. JUDE CHILDREN'S RESEARCH HOSPITAL, INC., priority 2020, published 2024)
pEC50, pIC50: −log10 of the molar value. Read-outs that look alike come from different tables or passages of the source.

Experiments:
6×His-CRBN-DDB1 protein = 6×His-CRBN-DDB1 protein (Homo sapiens (Human), UniProt Q96SW2); assay: CRBN fluorescence polarization assay; assay type: binding
Protocol: 6×His-CRBN-DDB1 protein (200 nM) and Cy5-O-Len probe (30 nM) were combined in 20 mM HEPES pH 7, 150 mM NaCl, 0.005% Tween-20 assay buffer. […] The plates were incubated in the dark for 1 hour at room temperature and then read on an Envision plate reader (PerkinElmer, Massachusetts, USA).

Aqueous solubility assay = assay type: physicochemical; conditions: aqueous solubility at pH = 7.4, triplicate
Protocol: Solubility assays were carried out on a Biomek FX lab automation workstation (Beckman Coulter, Inc., Fullerton, CA) using μSOL Evolution software (pION Inc., Woburn, MA). 10 μL of 10 mM compound stock (in DMSO) was added to 190 μL 1-propanol to make a reference stock plate. 5 μL from this reference stock plate were mixed with 70 μL 1-propanol and 75 μL citrate phosphate-buffered saline (PBS;isotonic) to make the reference plate, and the UV spectrum (250-500 nm) of the reference plate was read. 6 μL of 10 mM test compound stock was added to 594 μL buffer in a 96-well storage plate and mixed. The storage plate was sealed and incubated at RT for 18 h. The suspension was then filtered through a 96-well filter plate (pION Inc., Woburn, MA). 75 μL of filtrate was mixed with 75 μL 1-propanol to make the sample plate, and the UV spectrum of the sample plate was read. Calculations were carried out with μSOL Evolution software based on the area under the curve (AUC) of the UV spectrum of the sample and reference plates. All compounds were tested in triplicate.

MV4-11 cells = assay: MV-4-11 cell viability assay; assay type: cell-based, human; conditions: 72 hours, Cell Titer Glo
GSPT1 HiBiT tag protein = GSPT1 HiBiT tag protein (Homo sapiens (Human), UniProt P15170+Q96SW2); assay: hGSPT1 HiBiT assay; assay type: cell-based
Protocol: hGSPT1 HiBiT cell line. HEK293_hGSPT1_HiBiT tagged cells were generated using CRISPR-Cas12a technology. Briefly, ˜400,000 HEK293 cells were transiently co-transfecting with precomplexed ribonuclear proteins (RNPs) consisting of […] of crRNA (IDT), 62 pmol of Cas12a protein (IDT), 3 ug of ssODN donor (IDT; AltR™ modifications), 78 pmol of electroporation enhancer (IDT), and 200 ng of pMaxGFP (Lonza). The transfection was performed via nucleofection (Lonza, 4D-Nucleofector™ X-unit) using solution P3 and program CM-130 in a small (20 ul) cuvette according to the manufacturer's recommended protocol. Five days post-nucleofection, cells were single cell sorted for GFP+(transfected) cells by FACs in 96-well plates and clonally selected. Clones were screened and verified for the desired modification via targeted deep sequencing using gene specific primers with partial Illumina adapter overhangs as previously described.^58 In brief, clonal cell pellets were harvested, lysed and used to generate gene specific amplicons with partial Illumina adapters in PCR #1. Amplicons were indexed in PCR #2 and pooled with other targeted amplicons for other loci to create sequence diversity. Additionally, 10% PhiX Sequencing Control V3 (Illumina) was added to the pooled amplicon library prior to running the sample on an Miseq Sequencer System (Illumina) to generate paired 2×250 bp reads. […] Editing construct sequences and screening primers are listed below in Table 4.
hGSPT1 HiBiT assay. […] After 4 hrs incubation, the level of GSPT1 HiBiT tag protein was evaluated using Nano-Glo® HiBiT Lytic Detection System (Promega) according to the manufacturer's instruction.

MDCKII-MDR1 cells = assay: MDCKII-MDR1 permeability assay; assay type: in vitro ADME; conditions: permeability in MDCK-MDR1 cells
Protocol: High throughput […]1 permeability was performed in the Transwell® 0.4 μm polycarbonate membrane 96-well system with modified methods (Refs. 38-39). […]1 cells were maintained at 37° C. in a humidified incubator with an atmosphere of 5% CO2. The cells were cultured in 75 cm^2 flasks with Dulbecco's Modified Eagle's Medium (DMEM) containing 10% fetal bovine serum (FBS), 1% non-essential amino acids (NEAA), 100 units/ml of penicillin, and 100 μg/ml of streptomycin. The […]1 cells were seeded onto inserts at a density of 2×10^4 and 1×10^4 cells/insert separately. The medium in the wells was exchanged each other day, and the trans epithelial electrical resistance (TEER) value was measured using an epithelial volt-ohm meter (Millipore, Billerica, Massachusetts). […] For transport experiments, each cultured monolayer on the 96-well plate was washed twice with a transport buffer (HBSS/25 mM HEPES, pH 7.4). The permeability assay was initiated by the addition of each compound solution (10 μmol/L) into inserts (apical side, A) or receivers (basolateral side, B). The MDCKII-MDR1 cell monolayers were incubated for 1 hour at 37° C. Fractions were collected from receivers (if apical to basal permeability) or inserts (if basal to apical permeability), and concentrations were assessed by UPLC/MS (Waters; Milford, MA). All compounds were tested in triplicates. The A→B (or B→A) apparent permeability coefficients (Papp) of each compound were calculated using the equation, Papp=dQ/dt×1/AC0, where dQ/dt equals the flux of a drug across the monolayer, A equals the total insert well surface area, and C0 is the initial concentration of substrate in the donor compartment. The efflux ratio was determined by dividing the Papp in the B-A direction by the Papp in the A-B direction.

IKZF1 = IKZF1 (Homo sapiens (Human), UniProt Q13422+Q96SW2); assay: IKZF1 degradation by immunoblot in MV4-11 cells; assay type: cell-based; conditions: MV4-11 cells; for DC50: read-out: IKZF1 DC50, 24 h treatment
Protocol: MV4-11 cells were seeded in 6-well plates (1×10^6 cells per well). After overnight incubation, the cells were treated with indicated concentrations for specific timepoints. […] After blocking the membrane with LI-COR TBS blocking buffer and incubation in primary antibody overnight, the corresponding protein signals were detected using IRDye secondary antibodies and Odyssey Imaging System. Image Studio Lite Ver 5.2 was used for blot quantification. […] IRDye® 800CW Goat anti-Mouse IgG Secondary Antibody and IRDye® 68ORD Goat anti-Rabbit IgG Secondary Antibody were used as secondary antibodies.

[1] = fluorescence polarization, Cy5-O-Len probe, read-out: CRBN IC50
[2] = cereblon binding, class symbols, read-out: CRBN FP IC50
[3] = HEK293 hGSPT1 HiBiT cells, 4 hrs incubation; read-out: GSPT1 HiBit EC50

Chain of GSPT1 HiBiT tag protein (P15170 whole entry): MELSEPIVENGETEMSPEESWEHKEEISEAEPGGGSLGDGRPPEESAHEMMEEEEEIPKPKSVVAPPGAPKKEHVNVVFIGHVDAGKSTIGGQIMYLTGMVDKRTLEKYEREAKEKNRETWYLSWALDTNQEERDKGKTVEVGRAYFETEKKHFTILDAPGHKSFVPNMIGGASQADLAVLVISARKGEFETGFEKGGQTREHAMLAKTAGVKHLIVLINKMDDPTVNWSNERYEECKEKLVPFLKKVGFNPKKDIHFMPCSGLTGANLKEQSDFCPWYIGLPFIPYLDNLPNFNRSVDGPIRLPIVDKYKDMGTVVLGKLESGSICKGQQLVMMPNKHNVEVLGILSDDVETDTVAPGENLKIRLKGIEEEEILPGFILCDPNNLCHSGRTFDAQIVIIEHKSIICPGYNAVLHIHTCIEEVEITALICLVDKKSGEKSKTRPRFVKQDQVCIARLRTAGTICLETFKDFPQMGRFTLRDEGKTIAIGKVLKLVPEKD
Chain of GSPT1 HiBiT tag protein (Q96SW2 whole entry): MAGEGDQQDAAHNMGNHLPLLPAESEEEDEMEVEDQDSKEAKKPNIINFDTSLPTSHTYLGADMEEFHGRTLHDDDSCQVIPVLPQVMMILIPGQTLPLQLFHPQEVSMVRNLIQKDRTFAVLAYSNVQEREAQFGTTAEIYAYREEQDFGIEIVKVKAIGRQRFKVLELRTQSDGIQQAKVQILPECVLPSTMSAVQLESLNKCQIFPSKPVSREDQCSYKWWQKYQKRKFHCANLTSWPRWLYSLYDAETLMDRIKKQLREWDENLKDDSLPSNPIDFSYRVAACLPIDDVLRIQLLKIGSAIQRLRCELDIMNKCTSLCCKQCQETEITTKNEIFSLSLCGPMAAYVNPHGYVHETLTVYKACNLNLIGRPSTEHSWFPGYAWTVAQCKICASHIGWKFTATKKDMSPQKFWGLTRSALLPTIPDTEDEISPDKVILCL
Chain of GSPT1 HiBiT tag protein (Q16531 whole entry partner): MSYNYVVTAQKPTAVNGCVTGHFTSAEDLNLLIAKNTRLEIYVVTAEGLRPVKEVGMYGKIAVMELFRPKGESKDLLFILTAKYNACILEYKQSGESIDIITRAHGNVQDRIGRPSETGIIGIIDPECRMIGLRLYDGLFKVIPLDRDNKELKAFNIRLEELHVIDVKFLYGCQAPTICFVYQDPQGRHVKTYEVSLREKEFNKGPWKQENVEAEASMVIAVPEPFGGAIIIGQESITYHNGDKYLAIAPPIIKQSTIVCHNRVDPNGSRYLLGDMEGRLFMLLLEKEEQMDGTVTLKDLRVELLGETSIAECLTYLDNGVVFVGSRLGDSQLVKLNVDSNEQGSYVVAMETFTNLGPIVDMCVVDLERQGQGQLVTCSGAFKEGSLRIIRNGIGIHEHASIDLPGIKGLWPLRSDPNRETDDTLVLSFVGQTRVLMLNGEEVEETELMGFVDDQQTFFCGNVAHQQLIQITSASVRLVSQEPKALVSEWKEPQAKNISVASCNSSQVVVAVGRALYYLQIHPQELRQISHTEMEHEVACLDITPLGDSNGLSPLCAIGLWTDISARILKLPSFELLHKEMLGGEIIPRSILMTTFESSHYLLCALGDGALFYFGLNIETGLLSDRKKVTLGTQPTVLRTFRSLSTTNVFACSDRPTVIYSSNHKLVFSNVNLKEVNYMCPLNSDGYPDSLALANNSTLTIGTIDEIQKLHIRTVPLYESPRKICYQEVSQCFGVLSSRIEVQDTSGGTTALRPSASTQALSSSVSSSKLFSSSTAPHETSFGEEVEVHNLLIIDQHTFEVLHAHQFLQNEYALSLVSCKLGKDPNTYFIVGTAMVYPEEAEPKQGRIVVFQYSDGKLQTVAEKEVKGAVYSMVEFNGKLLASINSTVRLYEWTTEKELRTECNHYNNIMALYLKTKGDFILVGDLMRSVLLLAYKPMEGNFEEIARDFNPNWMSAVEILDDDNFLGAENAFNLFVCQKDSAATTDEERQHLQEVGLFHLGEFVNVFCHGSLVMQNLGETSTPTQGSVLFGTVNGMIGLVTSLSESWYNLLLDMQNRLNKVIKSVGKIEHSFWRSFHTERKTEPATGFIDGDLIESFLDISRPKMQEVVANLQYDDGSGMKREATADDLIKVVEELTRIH
Chain of 6×His-CRBN-DDB1 protein (Q96SW2 whole entry): as the sequence (Q96SW2 whole entry) above
Chain of 6×His-CRBN-DDB1 protein (Q16531 whole entry partner): as the sequence (Q16531 whole entry partner) above

| SMILES | pIC50 (6×His-CRBN-DDB1 protein; [2]) | DC50 (GSPT1 HiBiT tag protein; [3]) [µM] | other results |
| --- | --- | --- | --- |
| O=C1CCC(N2C(=O)c3ccc(NS(=O)(=O)c4ccccc4)cc3C2=O)C(=O)N1 (stereo not shown) [Compound 20, N-(2-(2,6-dioxopiperidin-3-yl)-1,3-dioxoisoindolin-5-yl)benzenesulfonamide] | – | – | pIC50 (6×His-CRBN-DDB1 protein; CRBN FP IC50, cereblon binding, class symbols): > 6.00; pIC50 (6×His-CRBN-DDB1 protein; [1]): 7.14; Sol. (Aqueous solubility assay): 71 µM; MV4-11 EC50 (MV4-11 cells): inactive; DC50 (GSPT1 HiBiT tag protein; read-out: GSPT1 HiBit EC50; HEK293 hGSPT1 HiBiT cells, 4 hrs incubation): > 10 µM; Papp (MDCKII-MDR1 cells): 3.6 ×10⁻⁶ cm/s |
| O=C1CCC(N2Cc3cc(CNC(=O)C(F)(F)c4ccc(Cl)cc4)ccc3C2=O)C(=O)N1 (stereo not shown) [CC-90009, 2-(4-chlorophenyl)-N-((2-(2,6-dioxopiperidin-3-yl)-1-oxoisoindolin-5-yl)methyl)-2,2-difluoroacetamide, reference compound] | – | – | Sol. (Aqueous solubility assay): 77 µM; Dmax at 10 µM (IKZF1; 4 hours, at 10 μM): 55%; DC50 (IKZF1): 0.01 µM; DC50 (IKZF1; listed as CC90009): 0.0099 µM; pEC50 (MV4-11 cells; Homo sapiens): 7.21; Papp (MDCKII-MDR1 cells): 4.9 ×10⁻⁶ cm/s |
| Cc1ccc(S(=O)(=O)Nc2ccc3c(c2)C(=O)N(C2CCC(=O)NC2=O)C3=O)cc1Cl (stereo not shown) [Compound 7, 3-chloro-N-(2-(2,6-dioxopiperidin-3-yl)-1,3-dioxoisoindolin-5-yl)-4-methylbenzenesulfonamide] | > 6.00 | > 10 | pIC50 (6×His-CRBN-DDB1 protein; [1]): 7.89; Papp (MDCKII-MDR1 cells): 4.6 ×10⁻⁶ cm/s |
| Cc1ccccc1S(=O)(=O)Nc1ccc2c(c1)C(=O)N(C1CCC(=O)NC1=O)C2=O (stereo not shown) [Compound 15, N-(2-(2,6-dioxopiperidin-3-yl)-1,3-dioxoisoindolin-5-yl)-2-methylbenzenesulfonamide] | > 6.00 | 1 to 10 | – |
| O=C1CCC(N2C(=O)c3ccc(NS(=O)(=O)Cc4ccccc4)cc3C2=O)C(=O)N1 (stereo not shown) [Compound 9, N-(2-(2,6-dioxopiperidin-3-yl)-1,3-dioxoisoindolin-5-yl)-1-phenylmethanesulfonamide] | 5.00 to 6.00 | > 10 | – |
| O=C1CCC(N2C(=O)c3ccc(NS(=O)(=O)c4ccccc4C(F)(F)F)cc3C2=O)C(=O)N1 (stereo not shown) [Compound 99, N-(2-(2,6-dioxopiperidin-3-yl)-1,3-dioxoisoindolin-5-yl)-2-(trifluoromethyl)benzenesulfonamide] | > 6.00 | < 1 | – |
| COc1ccc(Br)cc1S(=O)(=O)Nc1ccc2c(c1)C(=O)N(C1CCC(=O)NC1=O)C2=O (stereo not shown) [Compound 78, 5-bromo-N-(2-(2,6-dioxopiperidin-3-yl)-1,3-dioxoisoindolin-5-yl)-2-methoxybenzenesulfonamide] | 5.00 to 6.00 | > 10 | – |
| O=C1CCC(N2C(=O)c3ccc(NS(=O)(=O)c4ccc(Cl)c(Cl)c4)cc3C2=O)C(=O)N1 (stereo not shown) [Compound 71, 3,4-dichloro-N-(2-(2,6-dioxopiperidin-3-yl)-1,3-dioxoisoindolin-5-yl)benzenesulfonamide] | > 6.00 | > 10 | – |
| O=C1CCC(N2C(=O)c3ccc(NS(=O)(=O)c4ccsc4)cc3C2=O)C(=O)N1 (stereo not shown) [Compound 83, N-(2-(2,6-dioxopiperidin-3-yl)-1,3-dioxoisoindolin-5-yl)thiophene-3-sulfonamide] | > 6.00 | > 10 | – |
| O=C1CCC(N2C(=O)c3ccc(NS(=O)(=O)c4ccc(F)c(F)c4)cc3C2=O)C(=O)N1 (stereo not shown) [Compound 76] | 5.00 to 6.00 | > 10 | – |
| O=C1CCC(N2C(=O)c3ccc(NS(=O)(=O)c4ccc(O)cc4)cc3C2=O)C(=O)N1 (stereo not shown) [Compound 92, N-(2-(2,6-dioxopiperidin-3-yl)-1,3-dioxoisoindolin-5-yl)-4-hydroxybenzenesulfonamide] | 5.00 to 6.00 | > 10 | – |
| O=C1CCC(N2C(=O)c3ccc(NS(=O)(=O)c4cc5ccccc5s4)cc3C2=O)C(=O)N1 (stereo not shown) [Compound 87, N-(2-(2,6-dioxopiperidin-3-yl)-1,3-dioxoisoindolin-5-yl)benzo[b]thiophene-2-sulfonamide] | > 6.00 | > 10 | – |

Further lines, with some results ahead:

| pIC50 (6×His-CRBN-DDB1 protein; [2]) | DC50 (GSPT1 HiBiT tag protein; [3]) [µM] | SMILES | other results |
| --- | --- | --- | --- |
| > 6.00 | > 10 | O=C1CCC(N2C(=O)c3ccc(NS(=O)(=O)c4ccc(F)c(Cl)c4)cc3C2=O)C(=O)N1 (stereo not shown) [Compound 17, 3-chloro-N-(2-(2,6-dioxopiperidin-3-yl)-1,3-dioxoisoindolin-5-yl)-4-fluorobenzenesulfonamide] | – |
| > 6.00 | > 10 | Cc1ccc(F)cc1S(=O)(=O)Nc1ccc2c(c1)C(=O)N(C1CCC(=O)NC1=O)C2=O (stereo not shown) [Compound 75, N-(2-(2,6-dioxopiperidin-3-yl)-1,3-dioxoisoindolin-5-yl)-5-fluoro-2-methylbenzenesulfonamide] | – |
| > 6.00 | < 1 | O=C1CCC(N2C(=O)c3ccc(NS(=O)(=O)c4ccccc4Br)cc3C2=O)C(=O)N1 (stereo not shown) [Compound 98, 2-bromo-N-(2-(2,6-dioxopiperidin-3-yl)-1,3-dioxoisoindolin-5-yl)benzenesulfonamide] | – |
| > 6.00 | > 10 | O=C1CCC(N2C(=O)c3ccc(NS(=O)(=O)c4ccc5ccccc5c4)cc3C2=O)C(=O)N1 (stereo not shown) [Compound 63, N-(2-(2,6-dioxopiperidin-3-yl)-1,3-dioxoisoindolin-5-yl)naphthalene-2-sulfonamide] | – |
| > 6.00 | > 10 | O=C1CCC(N2C(=O)c3ccc(NS(=O)(=O)c4cccc(C(F)(F)F)c4)cc3C2=O)C(=O)N1 (stereo not shown) [Compound 4, N-(2-(2,6-dioxopiperidin-3-yl)-1,3-dioxoisoindolin-5-yl)-3-(trifluoromethyl)benzenesulfonamide] | – |
| > 6.00 | > 10 | O=C1CCC(N2C(=O)c3ccc(NS(=O)(=O)c4cccs4)cc3C2=O)C(=O)N1 (stereo not shown) [Compound 18, N-(2-(2,6-dioxopiperidin-3-yl)-1,3-dioxoisoindolin-5-yl)thiophene-2-sulfonamide] | – |
